Laboratory results from US8232289B2, “Spiropiperidine compounds as ORL-1 receptor antagonists” (Eli Lilly and Company, priority 2009, dated 2012).
Marks after values point to notes of the source that are not given here.

Legend:
5-HT6 = 5-HT6 (Homo sapiens, UniProt P50406); test: Radioligand binding selectivity, 5-HT6
Text: Similarly, Ki for the mu, kappa and delta opioids, serotonin, dopamine, adrenergic, mucarinic, and histamine receptors, as well as binding to the norepinephrine transporter, sodium channel, chloride channel, and calcium channel may be determined using membranes expressing the desired receptor/transporter/channels and appropriate corresponding radioligand competitor molecules.

Male Sprague-Dawley rats = test: Rat dural plasma protein extravasation (PPE) model, oral dosing; format: in vivo
Method: All test compounds are prepared in a vehicle solution containing 20% Captisol in 25 mM phosphate buffer (pH 2.0). The positive control compound, sumatriptan, is dissolved in saline. Male Sprague-Dawley rats from Harlan Laboratories (250 to 350 g), that have been fasted overnight, are dosed with test compound, sumatriptan or vehicle by oral gavage (2 mL/kg). Fifty min. post-dose the rats are anesthetized with Nembutal (60 mg/kg, ip) and placed in a stereotaxic frame with the incisor bar set at −2.5 mm. Following a mid-line sagittal scalp incision, 2 pairs of bilateral holes were drilled through the skull (3.2 mm posteriorly, 1.8 and 3.8 mm laterally, all coordinates referenced to bregma). Pairs of stainless steel stimulating electrodes (Rhodes Medical Systems Inc), insulated except at the tips, are lowered through the holes in both hemispheres to a depth of 9.2 mm below the dura.
A solution of fluoroscein isothiocyanate (FITC) dye-labeled bovine serum albumin (BSA) (FITC-BSA) (20 mg/kg, iv), is injected into the femoral vein 2 minutes prior to electrical stimulation of the trigeminal ganglion to function as the marker for protein extravasation. Sixty minutes following dosing with test compound or vehicle, the left trigeminal ganglion is electrically stimulated for 5 minutes at a current intensity of 1.0 mA (5 Hz, 5 minutes duration).
Five minutes following stimulation, the rats are killed by exsanguination with 40 mL of saline which also rinses residual FITC/BSA out of the blood vessels. The top of the skull is removed to collect the dural membranes. The membrane samples are removed from both hemispheres, rinsed with water, and spread flat on microscope slides. The slides are dried for 15 minutes on a slide warmer and cover-slipped with a 70% glycerol/water solution.
A fluorescence microscope equipped with a grating monochromator and a spectrophotometer is used to quantify the amount of FITC-BSA dye in each dural sample. The microscope is equipped with a motorized stage interfaced with a personal computer. This facilitates the computer-controlled movement of the stage, with fluorescence measurements at 25 points (500 μm steps) on each dural sample. The extravasation induced by electrical stimulation of the trigeminal ganglion is an ipsilateral effect (that is occurs only on the side of the dura in which the trigeminal ganglion is stimulated). This allows the other (unstimulated) half of the dura to be used as a control. The extravasation ratio (that is the ratio of the amount of extravasation in the dura from the stimulated side compared to the unstimulated side) is calculated. Animals dosed with vehicle alone or an ineffective dose of the test compound have an extravasation ratio of approximately 2, while totally effective treatments result in a ratio of approximately 1.
Results are expressed as mean values with standard errors of the mean (±SEM). All statistical evaluations are conducting utilizing ANOVA followed by comparison to the control group by Dunnett's Method. Statistical significance is assumed when p<0.05. Statistical analyses are performed using JMP statistical analysis software (SAS Research Institute, version 6.0.2).

Chain of 5-HT6 (P50406 whole entry, species assumed): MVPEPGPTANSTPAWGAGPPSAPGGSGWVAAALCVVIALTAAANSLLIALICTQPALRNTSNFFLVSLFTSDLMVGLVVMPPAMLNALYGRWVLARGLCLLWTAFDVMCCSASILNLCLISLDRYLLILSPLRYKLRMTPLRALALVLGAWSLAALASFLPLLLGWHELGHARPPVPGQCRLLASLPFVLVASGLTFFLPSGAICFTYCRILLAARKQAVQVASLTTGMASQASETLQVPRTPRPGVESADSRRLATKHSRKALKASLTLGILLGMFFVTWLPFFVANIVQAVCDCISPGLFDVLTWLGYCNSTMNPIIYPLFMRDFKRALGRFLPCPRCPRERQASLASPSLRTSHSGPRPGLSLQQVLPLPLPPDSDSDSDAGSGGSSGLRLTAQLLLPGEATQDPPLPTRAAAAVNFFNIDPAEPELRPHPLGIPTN

## O=C(O)C(O)C(O)C(=O)O.OCc1nn(-c2ncccc2F)cc1CN1CCC2(CC1)OCC(F)(F)c1cc(Cl)sc12 [Example 53, [4-[(2-Chloro-4,4-difluoro-spiro[5H-thieno[2,3-c]pyran-7,4′-piperidine]-1′-yl)methyl]-1-(3-fluoro-2-pyridyl)pyrazol-3-yl]methanol (L)-Tartrate]
5-HT6
  Ki: > 5.83 µM

## Cc1nn(-c2ncccc2CO)cc1CN1CCC2(CC1)OCC(F)(F)c1cc(Cl)sc12 [Example 62, [2-[4-[(2-Chloro-4,4-difluoro-spiro[5H-thieno[2,3-c]pyran-7,4′-piperidine]-1′-yl)methyl]-3-methyl-pyrazol-1-yl]-3-pyridyl]methanol]
Male Sprague-Dawley rats; 0.1 mg/kg po
  Extravasation Ratio (mean): 1.83
Male Sprague-Dawley rats; 1.0 mg/kg po
  Extravasation Ratio (mean): 1.44*
Male Sprague-Dawley rats; 10.0 mg/kg po
  Extravasation Ratio (mean): 1.20*
Male Sprague-Dawley rats; 30.0 mg/kg po
  Extravasation Ratio (mean): 1.14*
Male Sprague-Dawley rats; oral dosing
  blockade of extravasation: effectively block extravasation in a dose dependent manner
